Values quoted from earlier work as cited in US4174406A, “Terpenylaminoalkanol fish toxicants” (priority 1977, dated 1979).
Like-named read-outs stand apart in the source and are kept apart here.

System: Carp
Details: registered fish toxicants, cited from earlier work

In the case of antimycin, the “effect of water pH on activity” value is given as “adversely affected by pH”, the selectivity for carp is given as “non-selective for carp” and the “effect of water pH on activity” value (listed as antimyein) is given as “adversely affected by waters of high pH”.
In the case of `C=C(C)[C@H]1Cc2c(ccc3c2O[C@@H]2COc4cc(OC)c(OC)cc4[C@@H]2C3=O)O1` [Rotenone], the “effect of water pH on activity” value is listed as “adversely affected by waters of high pH” and the selectivity for carp is listed as “non-selective for carp”.
